Read-outs that look alike come from different tables or passages of the source.
How the values were obtained:
[1] = molecular target: T1, levetiracetam binding site (LBS) (Rattus norvegicus, UniProt Q02563); conditions: cited from earlier work
T1 construct: host or cells: crude rat brain membranes (Noyer et al. 1995; Gillard et al. 2003)

hSV2A = molecular target: T2, hSV2A (Homo sapiens, UniProt Q7L0J3); assay: [3H]ucb 30889 binding to hSV2A expressed in COS-7 cells; conditions: for competition with [3H]ucb 30889 for binding to SV2A: concentrations up to 100 μM
T2 construct: expressed in transfected cells; host or cells: COS-7 cells, transient transfection (pDEST 12.2 Gateway vector, CMV promoter)
T2 sequence (Q7L0J3 whole entry): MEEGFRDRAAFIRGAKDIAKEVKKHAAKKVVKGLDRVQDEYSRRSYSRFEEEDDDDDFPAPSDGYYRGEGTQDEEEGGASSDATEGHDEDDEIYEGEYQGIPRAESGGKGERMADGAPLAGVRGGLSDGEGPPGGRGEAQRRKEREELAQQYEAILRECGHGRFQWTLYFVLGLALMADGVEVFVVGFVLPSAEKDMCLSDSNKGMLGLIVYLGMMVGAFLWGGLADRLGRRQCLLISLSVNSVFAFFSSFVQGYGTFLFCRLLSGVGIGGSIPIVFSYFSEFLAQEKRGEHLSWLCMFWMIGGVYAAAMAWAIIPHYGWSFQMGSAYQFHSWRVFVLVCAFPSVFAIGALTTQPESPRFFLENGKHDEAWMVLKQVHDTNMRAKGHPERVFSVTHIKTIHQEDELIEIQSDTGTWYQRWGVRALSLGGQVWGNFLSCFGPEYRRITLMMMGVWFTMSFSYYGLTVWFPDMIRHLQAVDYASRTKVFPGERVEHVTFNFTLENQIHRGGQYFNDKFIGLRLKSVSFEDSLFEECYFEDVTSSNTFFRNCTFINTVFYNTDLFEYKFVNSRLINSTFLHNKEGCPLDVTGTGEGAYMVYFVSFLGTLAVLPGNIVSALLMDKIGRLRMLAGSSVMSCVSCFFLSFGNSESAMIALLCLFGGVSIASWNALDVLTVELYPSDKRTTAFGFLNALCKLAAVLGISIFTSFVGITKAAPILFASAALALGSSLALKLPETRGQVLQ

[2] = system: refractory partial seizures; conditions: adjunctive therapy; cited from earlier work
audiogenic seizures = conditions: in vivo; cited from earlier work
PC12 = assay: [3H]ucb 30889 binding in PC12 cells; design: species or system rat
Method: (§1) To identify and characterize the LBS in situ, [^3H]ucb 30889 was used to map the LBS within the brain and to study both its cellular and subcellular distribution. For rat brain autoradiography, 25 μm slices were incubated with 1.3 nM [^3H]ucb 30889 for 120 min at 4° C. in 50 mM Tris-HCl buffer (pH 7.4). Binding assays with rat brain membranes and various neuronal cell lines were performed under similar conditions. […] For photolabeling, membranes were incubated with 40 nM [^3H]ucb 30889 for 120 min at 4° C. in the same buffer, followed by irradiation with UV-light for 30 min (Fuks et al., Eur. J. Pharmacol. 478:11-19 (2003)).

soluble SV2A = molecular target: T3, soluble SV2A (Rattus norvegicus, UniProt Q02563); assay: [3H]ucb 30889 binding to n-dodecyl-β-D-maltoside solubilized SV2A; conditions: soluble protein in n-dodecyl-β-D-maltoside; read-out: KD (Scatchard analysis)
T3 construct: from tissue; host or cells: supernatant of detergent-solubilised rat brain membranes
T3 sequence (Q02563 whole entry): as the sequence (Q7L0J3 whole entry) above, with D53E, S62A, T71A, E144D, A154T, G440S, S482A, I572V, M634L counted along it
Method: The rat brain membranes were diluted in a solubilization buffer (Tris-HCl 20 mM pH 7.4, 0.25 M sucrose, protease inhibitors Complete Roche) containing n-dodecyl-β-D-maltoside 15 mM and incubated for two hours at 4° C. Subsequently, the solution was centrifuged at 4° C. for one hour at 100,000 g. The soluble SV2A was found in the supernatant as detected by western blot using anti-SV2A antibodies (FIG. 21A). The supernatants were incubated with [^3H]ucb 30889 as described. […] Thus, the binding properties of the soluble SV2A are similar to the membrane-bound native form indicative that the soluble protein maintains its native structural conformation in n-dodecyl-β-D-maltoside.

PC12bs cells (LBS) = assay: Intact cell [3H]ucb 30889 binding in PC12bs cells; design: species or system rat; conditions: identical conditions
Method: In a binding experiment, specific binding was measured of [^3H]ucb 30889 to COS-7 cells that have either been transfected with SV2A-12.2, or as controls, a β-gal expressing vector, or cells that have not been transfected (FIG. 13). […] The cells were incubated at 4° C. for 2 hours, and then washed rapidly with ice-cold PBS. The cells were lysed on the plate, transferred to scintillation vials with scintillation fluid and counted for ^3H decay emission. […] In identical intact cell binding experiments using PC12bs cells, known to express the LBS, a 1.5 to 2-fold difference in CPM between the ‘hot’ and ‘hot+cold’ samples is typically seen, as compared to the 5-fold difference seen here.

hSV2B = molecular target: T4, hSV2B (Homo sapiens, UniProt Q7L1I2); assay: [3H]ucb 30889 binding to hSV2B expressed in COS-7 cells; conditions: transient COS-7 system
T4 construct: expressed in transfected cells; host or cells: COS-7 cells, transient expression
T4 sequence (Q7L1I2 whole entry): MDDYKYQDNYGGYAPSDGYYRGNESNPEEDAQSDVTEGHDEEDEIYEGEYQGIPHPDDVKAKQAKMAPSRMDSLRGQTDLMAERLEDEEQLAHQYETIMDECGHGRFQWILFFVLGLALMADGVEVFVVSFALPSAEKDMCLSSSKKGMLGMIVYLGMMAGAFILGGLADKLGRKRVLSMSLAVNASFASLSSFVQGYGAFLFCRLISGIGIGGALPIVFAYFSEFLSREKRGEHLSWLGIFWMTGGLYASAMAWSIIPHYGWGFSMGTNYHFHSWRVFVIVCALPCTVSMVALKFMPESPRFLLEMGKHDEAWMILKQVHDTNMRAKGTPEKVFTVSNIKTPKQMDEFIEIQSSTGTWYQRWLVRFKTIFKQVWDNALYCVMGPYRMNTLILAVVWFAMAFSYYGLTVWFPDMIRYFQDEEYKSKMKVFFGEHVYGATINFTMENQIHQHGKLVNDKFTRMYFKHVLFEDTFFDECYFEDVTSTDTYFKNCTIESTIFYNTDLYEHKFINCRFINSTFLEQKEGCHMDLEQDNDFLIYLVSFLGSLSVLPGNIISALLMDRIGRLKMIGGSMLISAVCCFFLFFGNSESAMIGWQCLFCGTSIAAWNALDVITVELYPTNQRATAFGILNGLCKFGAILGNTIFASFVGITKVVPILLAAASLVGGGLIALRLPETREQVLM

Mouse cortical neurons = assay: [3H]ucb 30889 binding in mouse cortical neurons
Method: as §1

[3] = system: LBS in peripheral tissues; assay: [3H]ucb 30889 specific binding in peripheral tissues; conditions: 150 μg protein/assay, 1.3 nM radioligand; detection limit Bmax 200 fmol/mg protein
Method: (§2) Binding experiments were conducted on crude rat brain membranes at 4° C. as described in Noyer et al. (Euro. J. Pharmacol. 286:137-146 (1995)). Incubation time for equilibrium studies was 120 min. For kinetic and competition studies, [^3H]ucb 30889 (30 Ci/mmol) was used at a concentration of 1.3 nM in 0.5 ml of a Tris-HCl (pH 7.4) buffer containing 2 mM Mg^2+. Localization of the LBS in brain substructures was assessed by autoradiography on 25 μm thick slices incubated under similar conditions. Slides were then washed twice for 10 min at 4° C. in 50 mM Tris-HCl (pH 7.4) containing 0.5% BSA, dried and exposed for 3 weeks to [^3H]Hyperfilm at −20° C. Non-specific binding (NSB) was determined by the inclusion of 1 mM LEV during the incubation period.
The limit of detection under the experimental conditions (150 μg of protein/assay and 1.3 nM of radioligand) was a Bmax of 200 fmol/mg protein.

SV2A in native membrane = molecular target: T5, SV2A in native membrane (Rattus norvegicus, UniProt Q02563); assay: Scatchard analysis of [3H]ucb 30889 binding, native rat brain membrane
T5 construct: from tissue
T5 sequence (Q02563 whole entry): as the sequence (Q7L0J3 whole entry) above, with D53E, S62A, T71A, E144D, A154T, G440S, S482A, I572V, M634L counted along it

[4] = molecular target: T1, levetiracetam binding site (LBS); assay: [3H]ucb 30889 binding to crude rat brain membranes (kinetic, saturation, competition)
Method: as §2

COS-7 = assay: [3H]ucb 30889 binding in untransfected COS-7 cells; conditions: untransfected COS-7 cell line
Method: as §1
In addition, a PC12 cell line subclone, PC12a, which is low in LBS, was used to establish a pool of PC12 cells expressing hSV2A under stable antibiotic selection.

[5] = system: Rat cerebellar granule neurons; assay: [3H]ucb 30889 binding in rat cerebellar granule neurons
Method: as §1

hSV2C = molecular target: T6, hSV2C (Homo sapiens, UniProt Q496J9); assay: [3H]ucb 30889 binding to hSV2C expressed in COS-7 cells; conditions: transient COS-7 system
T6 construct: expressed in transfected cells; host or cells: COS-7 cells, transient expression
T6 sequence (Q496J9 1-727): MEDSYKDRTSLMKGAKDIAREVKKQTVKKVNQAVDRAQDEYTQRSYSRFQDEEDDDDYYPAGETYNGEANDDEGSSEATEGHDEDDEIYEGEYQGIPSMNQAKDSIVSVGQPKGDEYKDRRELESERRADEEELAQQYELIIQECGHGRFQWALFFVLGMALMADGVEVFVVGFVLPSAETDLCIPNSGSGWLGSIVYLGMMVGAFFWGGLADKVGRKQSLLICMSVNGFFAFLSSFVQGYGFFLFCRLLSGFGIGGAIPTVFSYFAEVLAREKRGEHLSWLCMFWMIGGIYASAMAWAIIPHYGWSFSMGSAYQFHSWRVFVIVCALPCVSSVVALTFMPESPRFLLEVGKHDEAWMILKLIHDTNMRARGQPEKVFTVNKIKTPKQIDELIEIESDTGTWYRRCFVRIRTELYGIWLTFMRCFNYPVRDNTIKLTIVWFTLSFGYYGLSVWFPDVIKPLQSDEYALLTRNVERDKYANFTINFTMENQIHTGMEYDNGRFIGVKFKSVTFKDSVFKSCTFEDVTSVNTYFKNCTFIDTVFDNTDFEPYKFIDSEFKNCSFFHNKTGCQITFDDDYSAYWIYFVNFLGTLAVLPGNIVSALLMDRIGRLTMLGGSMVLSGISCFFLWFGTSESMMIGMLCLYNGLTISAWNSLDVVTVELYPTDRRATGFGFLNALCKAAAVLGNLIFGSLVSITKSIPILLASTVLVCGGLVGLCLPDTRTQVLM

[6] = rat brain cortex, 4° C., fast component (25 to 50% of the sites)
[7] = rat brain cortex, 4° C., slow component

T1 sequence (Q02563 whole entry): as the sequence (Q7L0J3 whole entry) above, with D53E, S62A, T71A, E144D, A154T, G440S, S482A, I572V, M634L counted along it

Molecule | displacement of LEV binding [1] | competition with [3H]ucb 30889 for binding to SV2A (hSV2A) | also measured
COc1ccc(C(=O)N2CCCC2=O)cc1 [aniracetam] | displaced LEV binding | – | –
CCC1(C)CC(=O)NC(=O)C1 [bemegride] | competed with LEV | – | –
NC(=O)N1c2ccccc2C=Cc2ccccc21 [carbamazepine] | do not displace LEV binding | None of the AEDs at concentrations up to 100 μM, competed | –
O=C1CN=C(c2ccccc2Cl)c2cc([N+](=O)[O-])ccc2N1 [clonazepam] | do not displace LEV binding | – | –
CCC1(C)CC(=O)NC1=O (stereo not drawn) [ethosuximide] | competed with LEV | None of the AEDs at concentrations up to 100 μM, competed | –
NC(=O)OCC(COC(N)=O)c1ccccc1 [felbamate] | do not displace LEV binding | None of the AEDs at concentrations up to 100 μM, competed | –
NCC1(CC(=O)O)CCCCC1 [gabapentin] | do not displace LEV binding | None of the AEDs at concentrations up to 100 μM, competed | –
CC[C@@H](C(N)=O)N1CCCC1=O [levetiracetam, (S)-α-ethyl-2-oxo-1-pyrrolidine acetamide] | – | – | control of refractory partial seizures in adults [2]: both effective and well tolerated; affinity for the binding site ([1]; listed as LEV): modest affinity; affinity for the binding site ([1]; listed as [^3H]LEV): only micromolar affinity; suppression of seizures in the audiogenic-susceptible mouse (audiogenic seizures): unexpected potent ability
CCCC(C)C1(CC)C(=O)NC(=O)NC1=O (stereo not drawn) [pentobarbital] | competed with LEV | – | –
C1CCc2nnnn2CC1 [pentylenetetrazole] | competed with LEV | – | –
O=C1NC(=O)C(c2ccccc2)(c2ccccc2)N1 [phenytoin] | do not displace LEV binding | None of the AEDs at concentrations up to 100 μM, competed | –
Cc1ccsc1C(=CCCN1CCC[C@@H](C(=O)O)C1)c1sccc1C [tiagabine] | do not displace LEV binding | None of the AEDs at concentrations up to 100 μM, competed | –
CC[C@@H](C(N)=O)N1CC(c2cccc(N=[N+]=[N-])c2)CC1=O (stereo partly drawn) [ucb 30889, (2S)-2-[4-(3-azidophenyl)-2-oxopyrrolidin-1-yl]butanamide] | – | – | Bmax (PC12): 1.4 pmol/mg; Kd (PC12): 40 nM; Kd (soluble SV2A): 82 nM; difference in CPM between 'hot' and 'hot+cold' samples (PC12bs cells (LBS)): 1.5 to 2 fold; binding above background (hSV2B): no binding above background; Bmax (Mouse cortical neurons): 1.4 pmol/mg protein; Kd (Mouse cortical neurons): 34 nM; specific binding in peripheral tissues [3]: could not be detected; Kd (SV2A in native membrane): 30 nM; half-time for association, fast component [4, 6]: 3 ± 2 min; half-time for dissociation, fast component [4, 6]: 4 ± 1 min; half-time for association, slow component [4, 7]: 47 ± 13 min; half-time for dissociation, slow component [4, 7]: 61 ± 15 min; Bmax (saturation binding) ([4]; rat brain membranes, substance used as radioligand): 5054±704 fmol/mg protein; binding above background (COS-7): no binding above background; Bmax [5]: 0.7 pmol/mg protein; Kd [5]: 59 nM; binding above background (hSV2C): no binding above background; difference in CPM between 'hot' and 'hot+cold' samples (hSV2A; COS-7 transfected with SV2A-12.2, 1 nM radioligand ± 50 μM cold Levetiracetam, 4° C., 2 hours): 5 fold
CC[C@@H](C(N)=O)N1CCCC1=O [ucb L060] | – | – | affinity to hSV2A compared with LEV (hSV2A; displacement of [3H]ucb 30889, COS-7): significantly less affinity
CCCC(CCC)C(=O)O [valproate] | do not displace LEV binding | None of the AEDs at concentrations up to 100 μM, competed | –
C=CC(N)CCC(=O)O (stereo not drawn) [vigabatrin] | do not displace LEV binding | None of the AEDs at concentrations up to 100 μM, competed | –
NS(=O)(=O)Cc1noc2ccccc12 [zonisamide] | do not displace LEV binding | None of the AEDs at concentrations up to 100 μM, competed | –
picrotoxin | do not displace LEV binding | – | –
